From patent US20220281902A1, “MIT[…] IMPROVE METABOLIC SYNDROME DURING AGING” (The Board of Trustees of the Leland Stanford Junior …, priority 2019, published 2022)

How the values were obtained:
[1] = target: T1, cytochrome c oxidase (CcO) (Mus musculus, UniProt P00397); assay: CcO activity in liver mitochondria of treated mice; assay type: in vivo
T1 construct: Mouse livers were extracted, and liver mitochondria were obtained using a mitochondria isolation kit; from tissue; host or cells: liver mitochondria of treated and control C57BL/6 mice, isolated with a Sigma-Aldrich mitochondria isolation kit; activity kit Sigma-Aldrich CYTOCOX1
Procedure: Measurement of CcO activity in liver mitochondria. Mouse livers were extracted, and liver mitochondria were obtained using a mitochondria isolation kit (Sigma-Aldrich). CcO activity in liver mitochondria was measured using a cytochrome c oxidase assay kit (Sigma-Aldrich, CYTOCOX1, USA.

[2] = Body weight variations on chow diet; assay type: in vivo, C57BL/6 mice; details: for body weight lighter than controls: male mice
Procedure: Animal experimentation. […] Ltd) were group-housed in a barrier facility with 12-hr light/12-hr dark cycles. All mice received a regular chow diet ad libitum (PicoLab 5053 Rodent Diet 20; Lab Diets) except for HFD (40-60%) and CR models. The compound was then administered in drinking water ad libitum at either 90-100 or 100-120 mg/kg/day, based on the previously measured water consumption.
(§1) The C57BL/6 mice were maintained on a standard purified mouse diet (PicoLab 5053 Rodent Diet 20; Lab Diets) until they reached 2 months of age when the treatments started. The CR animals were subjected to a lifelong restriction on PicoLab 5053 Rodent Diet 20; Lab Diets, starting at 12 weeks of age, with a daily food allotment of 60% of that eaten by the ad lib animals. Besides CR animals, the C57BL/6 groups in this study were fed the standard high fat diet (HFD; 60 or 40% fat). Body weights were measured weekly at the same time each week. Food and water intake were measured once every month for 3-6 consecutive days at the same time each month. Water consumption was measured for 2 weeks prior to the start of administration. Compound was generated and modified for better permeability in to mitochondria, evaluated by HPLC, was 96%-97%. The administration began at 8 weeks of age and continued for 16 months, until they became 18-month-old. The drug solution was prepared weekly in small batches by dissolving the compound into autoclaved water at the respective doses and filtering sterilely. Aliquots were collected from each batch and measured by HPLC to confirm stability of the compound. Water bottles and cages were changed twice weekly. Fed and fasted blood samples were collected monthly at the same time each month from tail and used for glucose, insulin, blood cell counts, lipid analysis using assay kits (Robio, China) and HbA1C assay kit (Crystal chem, USA) following the manufacturer protocol. IPGTTs and ITTs were conducted throughout morning and early afternoon after fasting for 16-18 hrs. and 4 hrs., respectively, once before start of treatment administration began and every 3 months thereafter. Rectal body temperature was measured monthly, as described previously. Whole blood samples, and histopathology were analyzed after 14 months of treatment. Tissue samples were collected after 10-14 months from mice, sacrificed and used for WB and qPCR microarray, and other analyses. All animal studies were approved by the Shanghai Jiao Tong University Animal Studies Committee and were in accordance with NIH guidelines. (Number of mice; SD=30, HFD=10, CR=20).

[3] = test system: ASC1, Wdnm1-like, FGF-21, PGC-1α transcripts; assay: qPCR of adipogenesis regulators and white fat inducing transcripts in visceral fat; assay type: in vivo, mouse
Procedure: Gene expression & RT qPCR Analyses. Total RNA was isolated using a commercially available kit (OMEGA bio-tek, R6812-02) according to the manufacturer's instructions. cDNA was generated using the PrimeScript RT reagent kit (TAKARA, RR047A). Gene expression were determined by qPCR as described in the product manual. The analysis was evaluated by Bio-Rad Real-Time System (CFX Connect™).
RNAs from 10 mice (5 treated and 5 Ctrl.) VF fat or livers were isolated by using omega Bio-Tek reagents, and cDNA was transcribed by (TAKARA). qPCR was then performed by using iQ SYBR Green mastermix bioscience on a CFX96 Real-Time System/C1000 Thermal Cycler (Bio-Rad).

[4] = Intra-peritoneal glucose tolerance test (IPGTT); assay type: in vivo, C57BL/6 mice
Description: as §1, with “Fed and fasted blood samples were collected monthly at the same time each month from tail and used for glucose, insulin, blood cell counts, lipid analysis using assay kits (Robio, China) and HbA1C assay kit (Crystal chem, USA) following the manufacturer protocol. IPGTTs and ITTs were conducted throughout morning and early afternoon after fasting for 16-18 hrs. and 4 hrs., respectively, once before start of treatment administration began and every 3 months thereafter.” left out, “Tissue samples were collected after 10-14 months from mice, sacrificed and used for WB and qPCR microarray, and other analyses. All animal studies were approved by the Shanghai Jiao Tong University Animal Studies Committee and were in accordance with NIH guidelines. (Number of mice; SD=30, HFD=10, CR=20).” left out

HeLa cells = assay: In vivo cervical cancer mouse model; parameters: species or system mice
Procedure: To investigate the effects of an example compound on a cervical cancer mouse model, HeLa cells were introduced to the back of mice (five groups, 5-6 mice in each group). After the tumor volume reached about 200 mm^3, compound HG1a-1 solution (5, 20, 50 mg/kg) was dosed by intraperitoneal (IP) injection, every second day for ten days. Control mice were dosed with Saline and Taxol solution (PTX, 20 mg/kg). Tumor weight and volume were measured.

[5] = 5, 20 and 50 mg/kg IP, after 10 days

## Cc1ncsc1CCOC(=O)C[P+](c1ccccc1)(c1ccccc1)c1ccccc1.[Br-] [HG1a-1, (2-(2-(4-Methylthiazol-5-yl)Ethoxy)-2-Oxoethyl) Triphenylphosphonium Bromide]
[1]; 2 month old mice
  CcO inhibition activity: 67%
[1]; 12-month-long treated mice
  CcO function higher than controls of the same model: about 20%
  CcO function vs same age subjects receiving a single dose: one-fold greater
[1]; 14 month old mice
  CcO inhibition activity: 65%
[2]; female mice, by 9 months
  body weight decrease vs controls: 26%
[2]; female mice, end of 5 months
  body weight less than controls: 12%
[2]; after 14 months treatment
  body weight lighter than controls: 25%
[2]; end of 5 months
  body weight lighter than controls: 18%
[3]; 14 months of treatment
  ASC1 transcript decrease vs control: > 9 fold
  FGF-21 transcript: remained unchanged
  Wdnm1-like transcript decrease vs control: 30 fold
[3]; aged mice
  PGC-1α transcript: increased
[4]; after 6 months
  glucose tolerance (IPGTT): normal glucose tolerance
[4]; young ages of 8 weeks and 12 weeks
  glucose tolerance (IPGTT): mildly glucose-intolerant
HeLa cells; 5, 20, 50 mg/kg IP every second day for ten days, with increasing dose
  tumor size: decreased
HeLa cells; [5]
  tumor volume relative to saline control: decreased
  tumor weight relative to saline control: decreased
